What was measured:
[1] = tested on: Spinach2-Streptavidin aptamer (Streptavidin (SA)) (RNA, aptamer) GAUGUAACUGAAUGAAAUGGUGAAGGACGGGUCCACGACCGACCAGAAUCAUGCAAGUGCGUAAGAUAGUCGCGGGCCGGGGUUGUUGAGUAGAGUGUGAGCUCCGUAACUAGUUACAUC; test: dye fluorescence, plate reader; conditions: 200 mM KCl, 10 mM NaCl, 1 mM MgCl2; 100 mM Tris pH 7.5, 25 °C, 14 h; 10 μM RNA, 2 μM dye; with streptavidin
[2] = tested on: Tyr1M1 (RNA, aptamer) GGAUGUAACUGAAUGAAAUGGUGAAGGACGGGUCCAGCCCUUGGCAGUCAACUCGUGCGAUCGUGAAAACGGGGCAAGAUGGCCUUACAGCGGUCAAUACGGGGGUCAUCAGAUAGGGAGGCCAGGAUAUGUUGAGUAGAGUGUGAGCUCCGUAACUAGUUACAUC; test: dye fluorescence in droplets; conditions: 200 mM KCl, 10 mM NaCl, 10 mM MgCl2; 100 mM Tris pH 7.5; 30 μM RNA, 3 μM dye; salmon sperm DNA; with secreted tyrosine
[3] = tested on: Tyr1M1 (RNA, aptamer) GGAUGUAACUGAAUGAAAUGGUGAAGGACGGGUCCAGCCCUUGGCAGUCAACUCGUGCGAUCGUGAAAACGGGGCAAGAUGGCCUUACAGCGGUCAAUACGGGGGUCAUCAGAUAGGGAGGCCAGGAUAUGUUGAGUAGAGUGUGAGCUCCGUAACUAGUUACAUC; test: Spinach sensor fluorescence turn-on; conditions: 125 mM KCl, 5 mM MgCl2; 50 mM Tris-HCl pH 7.5; 2 μM DFHBI or DFHBI-1T; 1 mM ligand; 10 μM RNA

binding [1]	binding [2]	binding [3]	Structure (SMILES)
yes	yes		CC1=N/C(=C\c2cc(F)c(O)c(F)c2)C(=O)N1CC(F)(F)F
		yes	N[C@@H](Cc1ccc(O)cc1)C(=O)O

— article PMC5569033 (2017)
